The test system of one data set is NGFβ mRNA. Nature of the data set: NGFβ mRNA knock-down in Calu-1 cells (RNAiMax transfection, Taqman RT-PCR). The data set is classed as cell-based, human. The following applies: for Primary Screen % KD (10 nM) / IC50 / Maximum % KD in DRC: human CaLu-1 cells; for Primary Screen % KD (10 nM): mean ± S.D. of four experiments; for IC50 / Maximum % KD in DRC: dose response 0.083fM to 30 nM, mean ± S.D.; for % KD in CaLu-1 Cells: human Calu-1 cells, 10 nM siNA, 24 hrs post-transfection, relative to non-targeting control, normalized to GAPDH. (In general: Quantitative PCR measures a nucleic acid by following its amplification.)

In another data set the test system is NGFβ protein. Nature of the data set: NGFβ ELISA (protein knock-down in Calu-1 cells). The class given is cell-based, human. The following applies: for Max % Protein Reduction at 3 nM: 3 nM siNA, relative to negative universal control siNA (UC3); for IC50: 200 fM to 3 nM siNA, ELISA. Here is the method:
In a 96-well plate, 5,000 Calu-1cells/well were seeded in 100 uL of complete growth media and incubated overnight at 37° C. with 5% CO2. The cells were transfected with siNAs using RNAiMax (Invitrogen, Cat# 13778-150); final concentration of siNAs is 3e-09, le-09, 3e-10, le-10, 4e-11, le-11, 4e-12, le-12, 5e-13, and 2e-13 M. The amount of RNAiMax in each well is 0.3 uL. The siNAs were incubated for 24 hours. The medium was replaced with 100 uL of fresh complete growth medium. The cells were incubated for 48 hours. 80 uL of the medium from each well was collected into a separate 96-well plate. The samples were frozen immediately at −80° C. until ready the assay was ready to be performed.
ELISA was performed using NGF Emax® ImmunoAssay System (Promega, Cat # G7630) according to the manufaturer's instructions. The samples were diluted 1:2 with the blocking buffer provided in the kit. The samples absorbance was recorded at 450 nm on a SpectraMax plate reader (Molecular Devices) within 30 minutes of stopping the reaction.
Sigmaplot was used to determine IC50 values for each of the tested siRNAs using a sigmoidal dose response calculation. The maximum percentage of protein knock-down was determined by dividing the pg/mL at each treated siNA concentration by the pg/mL of the control treated cells at the same concentration of siNA. This number was then converted to a percentage to give the percent of protein remaining.
Various siNAs were also evaluated for their potential to knock-down NGFβ protein using an ELISA assay. Six siNAs were tested in an NGFβ ELISA assay across a range of concentrations of siNAs (200 fM to 3 nM) and the level of reduction of protein was determined relative to treatment of the cells with identical concentrations of the negative universal control siNA (UC3) (see Table 6).

Another data set has as its target T1, NGF (Homo sapiens, UniProt P01138).
T1 construct: host or cells: patients (in vivo)
The following applies: 440 patients, moderate-severe OA knee pain, 100 or 200 mcg/kg; 26% of patients given placebo; cited from earlier work.

[invAb] = inverted abasic unit; m = 2'-O-methyl; r = 2'-OH (RNA); f = 2'-fluoro

T1 sequence (P01138 122-241): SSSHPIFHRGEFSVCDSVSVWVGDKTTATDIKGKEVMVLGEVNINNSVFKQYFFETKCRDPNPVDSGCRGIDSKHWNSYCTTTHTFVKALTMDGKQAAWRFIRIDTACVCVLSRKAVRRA

By IC50 is commonly meant the concentration that inhibits the measured activity by half. Lower therefore signals higher potency. “25424-DC: siNA duplex, NGFβ target site 176; sense B AuGuuGuucuAcAcucuGA TTB (SEQ ID NO: 73), antisense UCAGAGuGuAGAAcAAcAuUU (SEQ ID NO: 74) (sense AUGUUGUUCUACACUCUGATT; antisense UCAGAGUGUAGAACAACAUUU; sense: DNA at AGT, 2'-fluoro at CU, [invAb] at 5' end, 3' end, backbone not given here; antisense: sugars from the 5' end rrrmmmfmfmmmmfmmfmfmm, backbone not given here)”: in the data set on NGFβ mRNA, the “Primary Screen % KD (10 nM)” value was 82 ± 9%, the IC50 came to 50 ± 55 pM, the “Maximum % KD in DRC” value was determined as 72 ± 5% and the “% KD in CaLu-1 Cells” value is given as 78%. Moreover, in the data set with NGFβ protein, the “Max % Protein Reduction at 3 nM” value was found to be 85% and inhibition was half-maximal at 0.108 nM (IC50).
As to “25425-DC: siNA duplex, NGFβ target site 181; sense B GuucuAcAcucuGAucAcA TTB (SEQ ID NO: 75), antisense UGUGAucAGAGuGuAGAAcUU (SEQ ID NO: 76) (sense GUUCUACACUCUGAUCACATT; antisense UGUGAUCAGAGUGUAGAACUU; sense: DNA at AGT, 2'-fluoro at CU, [invAb] at 5' end, 3' end, backbone not given here; antisense: sugars from the 5' end rrrmmffmmmmfmfmmmmfmm, backbone not given here)”, in the data set on NGFβ mRNA, the “Primary Screen % KD (10 nM)” value stood at 83 ± 6%, inhibition was half-maximal at 20 ± 19 pM (IC50), the “Maximum % KD in DRC” value is given as 72 ± 1% and the “% KD in CaLu-1 Cells” value is reported as 80%. In addition, in the data set on NGFβ protein, the “Max % Protein Reduction at 3 nM” value is 87% and the 50% inhibitory concentration (IC50) was 0.074 nM.
Take Tanezumab: in the data set with NGF, the “patients with 50% decline in pain” value is reported as “approximately 75%”.

These data come from US20120004281A1, “RNA Interference Mediated Inhibition of the Nerve Growth Factor Beta Chain (NGFB) Gene Expression Using Short Interfering Nucleic Acid (siNA)” (Merck Sharp & Dohme Corp, priority 2009, published 2012).
